Test results reported in patent US9686990B2, “Spiroindolinepiperidine derivatives” (priority 2002, dated 2017).

Experiments:
Format in all cases: in vivo
[1] = system: Spodoptera littoralis (Egyptian Cotton Leafworm); test: Spodoptera littoralis cotton leaf disc spray test; settings: foliar, 72 h, read-out: control of Spodoptera littoralis
Description: (§1) Test against were performed as follows:
Spodoptera littoralis (Egyptian Cotton Leafworm)

[2] = system: Plutella xylostella (Diamond Back Moth); test: Plutella xylostella larva test on artificial diet; settings: 120 h, 18.2 ppm by pipetting on artificial diet, L2 larvae, 5 days incubation, larval mortality, antifeedant, growth regulation
Description: as §1
24-well microtiter plate (MTP) with artificial diet was treated with test solutions at an application rate of 18.2 ppm by pipetting. After drying, the MTP's were infested with larvae (L2) (10-15 per well). After an incubation period of 5 days, samples were checked for larval mortality, antifeedant and growth regulation.

[3] = system: Aedes aegypti (Yellow Fever Mosquito); test: whole plant or invertebrate; settings: 48 h, L2 larvae with nutrition mixture, 2 days, mortality and growth inhibition
Description: as §1
Bean leaf discs on agar in 24-well microtiter plates wer sprayed with test solutions at an application rate of 200 ppm. After drying, the leaf discs are infested with mite populations of mixed ages. 8 days later, discs are checked for egg mortality, larval mortality, and adult mortality. […] Aedes aegypti (Yellow Fever Mosquito): 10-15 Aedes larvae (L2) together with a nutrition mixture are placed in 96-well microtiter plates. Test solutions at an application rate of 2 ppm are pipetted into the wells. 2 days later, insects were checked for mortality and growth inhibition.

[4] = system: Heliothis virescens (Tobacco Budworm); test: Heliothis virescens egg/larva test on artificial diet; settings: 96 h, read-out: control of Heliothis virescens

Compound: O=C(c1ccnc(Cl)c1)N1CC2(CCN(C/C=C/c3ccc(C(F)(F)F)cc3)CC2)c2cc(Cl)ccc21 [XXX-51, 1-(2-chloropyridin-4-yl)carbonyl-5-chloro-1′-[(E)-3-(4-trifluoromethyl-phenyl)allyl]spiro[indolin-3,4′-piperidine]]
- pest or weed control at 200 ppm [1]: ≥ 80%
- pest or weed control at 18.2 ppm [2]: ≥ 80%
- pest or weed control at 2 ppm [3]: ≥ 80%

Compound: CSc1ccc(/C=C\CN2CCC3(CC2)CN(C(=O)c2ccnc(Cl)c2)c2ccc(Cl)cc23)cc1 [XXX-72, 1-(2-chloropyridin-4-yl)carbonyl-5-chloro-1′-[(Z)-3-(4-methylthiophenyl)allyl]spiro[indolin-3,4′-piperidine]]
- pest or weed control at 200 ppm [4]: ≥ 80%

Compound: O=C(c1ccncc1)N1CC2(CCN(C/C=C/c3ccc(Cl)cc3)CC2)c2cc(Cl)ccc21 [VI-22, 1-(Pyridin-4-yl)-carbonyl-5-chloro-1′-[trans-3-(4-chlorophenyl)allyl]spiro[indoline-3,4′-piperidine]]
- pest or weed control at 200 ppm [1]: ≥ 80%
- pest or weed control at 200 ppm [4]: ≥ 80%
- pest or weed control at 18.2 ppm [2]: ≥ 80%
- pest or weed control at 2 ppm [3]: ≥ 80%

Compound: CC(=O)N1CC2(CCN(C/C=C/c3ccc(Cl)cc3)CC2)c2cc(Cl)ccc21 [Compound V-22, 1-Acetyl-5-chloro-1′-[trans-3-(4-chlorophenyl)allyl]spiro[indoline-3,4′-piperidine]]
- pest or weed control at 200 ppm [1]: ≥ 80%
- pest or weed control at 200 ppm [4]: ≥ 80%
- pest or weed control at 18.2 ppm [2]: ≥ 80%
- pest or weed control at 2 ppm [3]: ≥ 80%

Compound: NN1CC2(CCN(C/C=C/c3ccc(Cl)cc3)CC2)c2cc(F)ccc21 [XXX-94]
- pest or weed control at 200 ppm [4]: ≥ 80%
- pest or weed control at 2 ppm [3]: ≥ 80%

Compound: O=C(c1ccnc(Cl)c1)N1CC2(CCN(C/C=C/c3ccccc3)CC2)c2ccccc21 [Compound I-1, 1-(2-Chloropyridin-4-yl)carbonyl-1′-[trans-3-phenylallyl]spiro[indoline-3,4′-piperidine]]
- pest or weed control at 200 ppm [4]: ≥ 80%
- pest or weed control at 18.2 ppm [2]: ≥ 80%

Compound: C/C(=N/N1CC2(CCN(C/C=C/c3ccc(Cl)cc3)CC2)c2cc(Cl)ccc21)N(C)C [XXX-102, N′-[5-chloro-1′-[trans-3-(4-chlorophenyl)allyl]spiro[indoline-3,4′-piperidine]-1-yl]-N,N-dimethylacetamidine]
- pest or weed control at 2 ppm [3]: ≥ 80%

Compound: N#Cc1ccc2c(c1)C1(CCN(C/C=C/c3ccc(Cl)cc3)CC1)CN2C(=O)c1ccnc(Cl)c1 [Compound I-212, 5-Cyano-1-(2-chloropyridin-4-yl)carbonyl-1′-[trans-3-(4-chlorophenyl)allyl]spiro[indoline-3,4′-piperidine]]
- pest or weed control at 200 ppm [1]: ≥ 80%
- pest or weed control at 200 ppm [4]: ≥ 80%
- pest or weed control at 18.2 ppm [2]: ≥ 80%
- pest or weed control at 2 ppm [3]: ≥ 80%

Compound: Clc1ccc(/C=C/CN2CCC3(CC2)CN(c2cnccn2)c2ccc(Cl)cc23)cc1 [XIV-22, 1-(2-Pyrazinyl)-5-chloro-1′-[trans-3-(4-chlorophenyl)allyl]spiro[indoline-3,4′-piperidine]]
- pest or weed control at 200 ppm [1]: ≥ 80%
- pest or weed control at 200 ppm [4]: ≥ 80%
- pest or weed control at 18.2 ppm [2]: ≥ 80%
- pest or weed control at 2 ppm [3]: ≥ 80%

Compound: O=C(c1ccnc(Cl)c1)N1CC2(CCN(C/C=C(\F)c3ccc(Cl)cc3)CC2)c2cc(Cl)ccc21 [XXX-90, 1-(2-chloropyridin-4-yl)carbonyl-5-chloro-1′-[(Z)-3-(4-chlorophenyl)-3-fluoro-allyl]spiro[indolin-3,4′-piperidine]]
- pest or weed control at 200 ppm [4]: ≥ 80%
- pest or weed control at 18.2 ppm [2]: ≥ 80%
- pest or weed control at 2 ppm [3]: ≥ 80%

Compound: COCCNC(=O)N1CC2(CCN(C/C=C/c3ccc(Cl)cc3)CC2)c2cc(F)ccc21 [XXX-105]
- pest or weed control at 200 ppm [1]: ≥ 80%
- pest or weed control at 200 ppm [4]: ≥ 80%
- pest or weed control at 18.2 ppm [2]: ≥ 80%
- pest or weed control at 2 ppm [3]: ≥ 80%

Compound: Cc1ccc2c(c1)C1(CCN(C/C=C/c3ccc(Cl)cc3)CC1)CN2C(=O)c1ccc(C#N)cc1 [XIX-202, 1-(4-cyanobenzoyl)-5-methyl-1′-[trans-3-(4-chlorophenyl)allyl]spiro[indoline-3,4′-piperidine]]
- pest or weed control at 200 ppm [1]: ≥ 80%
- pest or weed control at 200 ppm [4]: ≥ 80%

Compound: O=C(c1ccnc(Cl)c1)N1CC2(CCN(C/C(F)=C/c3ccc(Cl)cc3)CC2)c2cc(Cl)ccc21 [XXX-113, 1-(2-chloropyridin-4-yl)carbonyl-5-chloro-1′-[(Z)-3-(4-chlorophenyl)-2-fluoro-allyl]spiro[indolin-3,4′-piperidine]]
- pest or weed control at 200 ppm [1]: ≥ 80%
- pest or weed control at 200 ppm [4]: ≥ 80%
- pest or weed control at 18.2 ppm [2]: ≥ 80%
- pest or weed control at 2 ppm [3]: ≥ 80%

Compound: O=C(c1ccnc(Cl)c1)N1CC2(CCN(C/C=C(\Cl)c3ccc(Cl)cc3)CC2)c2cc(Cl)ccc21 [XXX-115, 1-(2-chloropyridin-4-yl)carbonyl-5-chloro-1′-[(Z)-3-(4-chlorophenyl)-3-chloro-allyl]spiro[indolin-3,4′-piperidine]]
- pest or weed control at 200 ppm [4]: ≥ 80%
